Where “and” joins values, the source holds several entries; their conditions need not be identical. Equal values may be shown once.
Legend:
[1] = system: pulmonary vascular resistance (PVR); settings: cited from earlier work
[2] = system: thromboxane analog U46619 induced PAH in minipigs with ODQ or L-NAME pretreatment; assay: PAH minipig model under oxidative stress / low NO (pretreatment by ODQ or L-NAME); format: in vivo, Göttingen minipig; set-up: PAP / BP: unit not given beside the values; settings: for BP / PAP: Ventavis 10 μg/kg nominal dose inhaled
Method: To simulate conditions of oxidative stress or low NO concentrations as assumed to be present in different cardiovascular disorders, comparative example 11 was evaluated with and without pretreatment by ODQ (inhibitor of sGC) or L-NAME (NOS inhibitor). […] In contrast, the effects of Ventavis® under conditions of oxidative stress or low NO concentrations were not enhanced. In addition, also under these pathophysiological conditions the duration of action of comparative example 11 was much longer compared to Ventavis®.

[3] = system: thromboxane analog U46619 induced PAH in minipigs; assay: Haemodynamics (PAP, BP) in the anesthetized thromboxane challenged PAH minipig after inhaled (nebulized) application (C-2.1); format: in vivo, Göttingen minipig; settings: inhaled; Ventavis 10 μg/kg nominal dose; comparative example 11 10, 30 and 100 μg/kg nominal dose; 240 min observation interval
Procedure, shortened: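 Anesthetized, ventilated Göttingen minipigs (2-6 kg) given continuous infusion (0.3-0.75 μg/kg/min) to raise mean PAP above 25 mmHg, dosing starting after a 30 min plateau. Compound in 1% DMSO/0.2% citric acid, pH 8, nebulized via Aeroneb Pro into the inspiratory arm (~7 min; stock 300 μg/kg). PAP by Swan-Ganz catheter, BP via carotid catheter.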

[4] = system: isolated Langendorff-perfused rat heart; assay: Isolated perfused heart according to Langendorff: perfusion pressure and wash-out score (C-1.2); settings: comparative example 11 300 nmol/l, others 100 nmol/l, n=6
Method: Male Wistar rats (strain HsdCpb:WU) with a body weight of 200-250 g were anaesthetized with Narcoren® (100 mg/kg). The thorax was opened and the heart was then exposed, excised and connected to a Langendorff apparatus by placing a cannula into the aorta. The heart was perfused retrogradely at 9 ml/min at constant flow with a Krebs-Henseleit buffer solution (gassed with 95% O2 and 5% CO2, pH 7.4, 35° C.; composition in mmol/l: NaCl 118; KCl 3; NaHCO3 22; KH2PO4 1.2; MgSO4 1.2; CaCl2 1.8; Glucose 10; Na pyruvate 2). A pressure transducer registered the perfusion pressure in the perfusion system. The left ventricular pressure (LVP) was measured using a second pressure transducer connected to a water-filled balloon which was inserted into the left ventricle via the left atrium. The end diastolic pressure was initially set to 8 mm Hg by adjusting the volume of the balloon. The hearts were spontaneously beating. The signals from the pressure transducer were amplified, registered by a personal computer (Powerlab Chart software, ADInstruments).
Then the hearts were perfused for a further 120 min without the test substance (wash-out phase). The reversibility of the effect (wash-out score) was calculated as a percentage of the PP recovery after 60 min of washout related to the maximum drop of PP induced by the test compound. The wash-out score obtained in this manner was taken as a measure for the residence time of the test substance at the site of action.

[5] = Protein binding via ultrafiltration assay (comparative example 2); format: in vitro ADME
Excerpt: For this assay, filter membranes of 30 kDa pore size were used to separate plasma and protein free ultrafiltrate. The driving force for filtration was applied by centrifugation. Prior to protein binding studies, the adsorption (recovery) of the test compound to the ultra-filtration device and the ability of the test compound to pass the filter membrane was checked by filtration of the test compound dissolved in buffer at four concentrations. Sufficient stability of the test compound and an almost complete recovery (≥90% of the actual amount of compound used for the experiment) was a prerequisite for the use of the ultrafiltration method. The amount of organic solvent added to the plasma may not exceed 2% of the total incubation volume. Blood samples were collected in heparinized tubes either pooled (all species except human and monkey) or individually (human and monkey) and were used within 24 h for incubation experiments in blood. Plasma was prepared by centrifugation of the heparinized blood samples. Plasma was stored at −15° C. until use. Plasma stability, Compound recovery, unspecific binding to the membrane and the test device as well as partitioning between blood cells and plasma were controlled. The substance-associated radioactivity was determined by liquid scintillation counting. With this analytical method, it is not possible to distinguish between unchanged substance and radioactive metabolites. For details of the radioanalytical methods and the work up of the samples see Goeller et al. (3). A description of the ultrafiltration method in general was published by Zhang et al. In 2012 (4).

[6] = system: thromboxane analog U46619 induced PAH in minipigs; assay: PAH minipig model: comparison with and on top of standard of care (bosentan, sildenafil, riociguat); format: in vivo, Göttingen minipig
Excerpt: Efficacy of inhaled comparative example 11 was compared with systemically applied bosentan, sildenafil and riociguat (see FIG. 53a) in the PAH minipig model. […] Therefore inhaled application of comparative example 11 offers clear benefits as systemic effects are avoided, compared to standard of care.

[7] = Caco-2 permeability test (C-5.1); format: in vitro ADME, human; settings: human, Caco-2 (2 μM)
Method: The in vitro permeation of a test compound across a Caco-2 cell monolayer is a well-established assay system to predict the permeability from the gastro-intestinal tract (1). The permeability of the compounds of the present invention in such Caco-2 cells was determined as described below:
Human caco-2 cells were seeded on 24-well insert plates and were allowed to grow for 14-16 days. For permeability studies, the test compounds were dissolved in DMSO and diluted to the final test concentration of 2 μM with transport buffer [Hanks' Buffered Salt Solution, Gibco/Invitrogen, further supplemented with glucose and HEPES]. For determination of the apical to basolateral permeability (PappA-B), the test compound solution was added to the apical side of the cell monolayer and transport buffer to the basolateral side of the monolayer; for determination of the basolateral to apical permeability (PappB-A), the test compound solution was added to the basolateral side of the cell monolayer and transport buffer to the apical side of the monolayer. Samples were taken from the donor compartment at the beginning of the experiment to confirm mass balance. After an incubation of 2 h at 37° C., samples were taken from both compartments. Samples were analyzed by LC-MS/MS, and the apparent permeability coefficients were calculated. Lucifer Yellow permeability was assayed for each cell monolayer to ensure cell monolayer integrity, and the permeability of Atenolol (low permeability marker) and Sulfasalazine (marker for active excretion) was determined for each batch as quality control.

[8] = system: acetylcholine-induced bronchospasm; assay: Bronchorelaxation in vivo: acetylcholine-induced bronchoconstriction in Brown Norway rats, RL and Cdyn (C-3.2); set-up: species or system rat; settings: inhaled 60 minutes before provocation; tiotropium 1 μg/kg; comparative example 11 1, 10 and 100 μg/kg
Method: The bronchoconstriction model (see Hoymann H G. Lung function measurements in rodents in safety pharmacology studies. Front Pharmacol 2012; 3:156) used Male Brown Norway rats (Charles River, Sulzfeld, Germany; 10-12 weeks old) randomized to three treatment groups (comparative example 11, 1 μg/kg, 10 μg/kg, and 100 μg/kg; n=12-13), one positive control group (tiotropium 1 μg/kg; n=12), and one vehicle control group (n=17). Animals were treated with the inhaled test compounds 60 minutes before provocation. Comparative example 11, vehicle, or tiotropium were aerosolized using a micro feeding system and a dispersion nozzle operated with pressurized air. The aerosol concentration was determined by filter sampling with gravimetrical analysis and monitored continuously by a photometer. The lung-deposited doses were assessed from the inhalation dose (Raabe O G, Al-Bayati M A, Teague S V, Rasolt A. Regional Deposition of Inhaled Monodisperse Coarse and Fine Aerosol Particles in Small Laboratory Animals. The Annals of Occupational Hygiene 1988; 32:53-63.). […] After reaching a steady state in respiration, lung function of the spontaneously breathing animal was recorded as baseline values for ≥2 minutes; amongst other parameters, lung resistance (=RL) and dynamic compliance (=Cdyn) were used to assess bronchoconstriction. […]

[9] = Riociguat 3 μg/kg/h systemically applied, % change per animal

In the case of `CCCCC[C@H](O)CC[C@@H]1[C@H]2Cc3cccc(OCC(=O)O)c3C[C@H]2C[C@H]1O` [Treprostinil], the “mean change in PVR from baseline” value ([1]; single administration, historical comparison) is given as −30%.

With `CC#CCC(C)[C@H](O)/C=C/[C@@H]1[C@H]2C/C(=C/CCCC(=O)O)C[C@H]2C[C@H]1O` (stereo partly shown) [Ventavis, reference compound] the BP ([2]; L-NAME pretreatment, Time 70) was 105.0 and 133.0 and 125.0, the PAP ([2]; L-NAME pretreatment, Time 70) was 31.7 and 27.4 and 28.7 and the BP ([2]; L-NAME pretreatment, Time 80) was 106.0 and 131.0 and 123.0. For the same molecule, the PAP ([2]; L-NAME pretreatment, Time 80) was 41.2 and 33.5 and 29.7, the BP ([2]; L-NAME pretreatment, Time 90) was 102.0 and 124.0 and 121.0 and the PAP ([2]; L-NAME pretreatment, Time 90) was 42.2 and 37.9 and 32.1. The BP ([2]; L-NAME pretreatment, Time 100) was 101.0 and 124.0 and 117.0, the PAP ([2]; L-NAME pretreatment, Time 100) was 41.5 and 39.6 and 38.9 and the BP ([2]; L-NAME pretreatment, Time 110) was 101.0 and 125.0 and 114.0. For the same molecule, the PAP ([2]; L-NAME pretreatment, Time 110) was 41.5 and 41.0, the BP ([2]; ODQ pretreatment, Time 70) was 97.0 and 103.0 and 92.0 and the PAP ([2]; ODQ pretreatment, Time 70) was 33.6 and 26.4 and 25.9. For the same molecule, the BP ([2]; ODQ pretreatment, Time 80) was 98.0 and 105.0 and 92.0, the PAP ([2]; ODQ pretreatment, Time 80) was 37.4 and 32.8 and 32.1 and the BP ([2]; ODQ pretreatment, Time 90) was 100.0 and 104.0 and 92.0. The PAP ([2]; ODQ pretreatment, Time 90) was 38.5 and 37.5 and 38.2, the BP ([2]; ODQ pretreatment, Time 100) was 101.0 and 104.0 and 93.0 and the PAP ([2]; ODQ pretreatment, Time 100) was 38.8 and 40.6 and 39.2. For the same molecule, the BP ([2]; ODQ pretreatment, Time 110) was 103.0 and 94.0, the PAP ([2]; ODQ pretreatment, Time 110) was 39.3 and 39.5 and 40.0 and the BP ([2]; without pretreatment, Time 70) was 107.0 and 109.0 and 116.0. The PAP ([2]; without pretreatment, Time 70) was 26.1 and 28.2 and 29.6, the BP ([2]; without pretreatment, Time 80) was 102.0 and 110.0 and 113.0 and the PAP ([2]; without pretreatment, Time 80) was 34.7 and 36.7 and 37.4. For the same molecule, the BP ([2]; without pretreatment, Time 90) was 99.0 and 109.0 and 111.0, the PAP ([2]; without pretreatment, Time 90) was 38.9 and 41.2 and the BP ([2]; without pretreatment, Time 100) was 98.0 and 106.0 and 108.0. The PAP ([2]; without pretreatment, Time 100) was 37.9 and 39.2 and 41.9, the BP ([2]; without pretreatment, Time 110) was 95.0 and 105.0 and 106.0 and the PAP ([2]; without pretreatment, Time 110) was 38.4 and 39.5 and 42.2. For the same molecule, the “effect on PAP after pretreatment of ODQ or L-NAME” value ([2]; inhaled, comparative example 11 30 μg/kg ND, Ventavis 10 μg/kg nominal dose) was “not enhanced”, the duration of action [3] was “about 40 min” and the “duration of action on haemodynamics (PVR) in clinical studies” value ([1]; inhaled, patients) was “about 60 min”.

In the case of `COC(=O)N(C)c1c(N)nc(-c2nn(Cc3ccccc3F)c3ncccc23)nc1N` [comparative example 2, Methyl-4,6-diamino-2-[1-(2-fluorobenzyl)-1H-pyrazolo[3,4-b]pyridine-3-yl]-5-pyrimi-dinyl(methyl)carbamate, reference compound], the wash-out score ([4]; PP recovery after 60 min of washout related to maximum drop of PP) is reported as 98%, the “effect on perfusion pressure (PP)” value [4] is reported as “pronounced reduction of perfusion pressure” and the fraction unbound ([5]; Dog Beagle plasma) is reported as 0.171. The fraction unbound ([5]; Human (male) plasma) was 0.0497, the fraction unbound ([5]; Rat Wistar plasma) was 0.157 and the BP decrease % [6, 9] was −0.3% and −8.8% and −10.9%. For the same molecule, the PAP decrease % [6, 9] was −9.1% (2×) and −16.8%, the “effects on PAP and BP” value ([6]; bosentan 1 mg/kg, sildenafil 300 μg/kg/h, riociguat 3 μg/kg/h systemically, comparative example 11 30 and 100 μg/kg inhaled) was “decreases in both PAP and BP” and the efflux ratio at 2 h, 2 μM [7] was 11 ± 3.3. The Papp A→B at 2 h, 2 μM ([7]; concentration per compound 2.0 or 2.4 μM, read-out: Papp A-B (mean +/− SD)) was 3.5 ± 0.84 ×10⁻⁶ cm/s and the Papp B→A at 2 h, 2 μM ([7]; concentration per compound 2.0 or 2.4 μM, read-out: Papp B-A (mean +/− SD)) was 36.7 ± 7.5 ×10⁻⁶ cm/s.

With `C[N+]1(C)[C@@H]2C[C@@H](OC(=O)C(O)(c3cccs3)c3cccs3)C[C@H]1[C@@H]1O[C@@H]12` [tiotropium, reference compound] the “bronchodilatory efficacy (RL)” value [8] was “inhibited acetylcholine-induced bronchospasm”.

From US12138256B2, “Treatment of cardiopulmonary disorders” (Bayer Aktiengesellschaft, priority 2021, dated 2024)
